Measurements: patent US8207346B2, “Methods of synthesizing anatabine” (Rock Creek Pharmaceuticals, Inc., priority 2010, dated 2012)

What was measured:
[1] = Stability analysis of anatabine base with and without BHT as a preservative; format: physicochemical
Protocol: See, for example, Tables 3 and 4 in Examples 4 and 5, respectively. Purity of the anatabine may be retained for extended periods of time. […] Further, anatabine remains stable when stored at a variety of temperatures. For example, the anatabine retains the indicated purity when stored at −20° C. to −10° C., −20° C. to 0° C., −10° C. to 0° C., 0° C. to 4° C., 2° C. to 8° C., 5° C. to 10° C., 10° C. to 15° C., 15° C. to 25° C., or 25° C. to 28° C. Stability is determined by any suitable art-recognized method. For example, anatabine stability may be monitored by high performance liquid chromatography (HPLC), liquid chromatography-mass spectroscopy (LC-MS), or nuclear magnetic resonance (NMR).
Anatabine base stability was analyzed with and without BHT (3,5-di-tert-butyl-4-hydroxytoluene). The initial purity of BHT-free anatabine base was 94.95%. The initial purity of anatabine base with BHT was 94.87%.

monoamine oxidase (MAO) = settings: known from Williams et al. U.S. Pat. No. 6,929,811; cited from earlier work

SMILES: C1=CCC(c2cccnc2)NC1 (stereo not shown) [anatabine base without BHT, Anatabine]
- Purity (%) ([1]; day 1, storage temperature 2-8° C.): 94.44%
- Purity (%) ([1]; day 1, storage temperature 25-28° C.): 89.63%
- Purity (%) ([1]; day 1, storage temperature −20° C.): 93.90%
- Purity (%) ([1]; day 2, storage temperature 2-8° C.): 94.05%
- Purity (%) ([1]; day 2, storage temperature 25-28° C.): 87.59%
- Purity (%) ([1]; day 2, storage temperature −20° C.): 94.62%
- Purity (%) ([1]; day 3, storage temperature 2-8° C.): 91.65%
- Purity (%) ([1]; day 3, storage temperature 25-28° C.): 80.74%
- Purity (%) ([1]; day 3, storage temperature −20° C.): 93.87%
- Purity (%) ([1]; day 12, storage temperature 2-8° C.): 90.12%
- Purity (%) ([1]; day 12, storage temperature 25-28° C.): 79.59%
- Purity (%) ([1]; day 12, storage temperature −20° C.): 94.01%
- Inhibition of monoamine oxidase (MAO) (monoamine oxidase (MAO)): inhibit monoamine oxidase (MAO)
